Results taken from US12304813B2, “Sodium thiosulfate-containing pharmaceutical compositions” (Hope Medical Enterprises, Inc., priority 2009, dated 2025).

Columns and labels:
[1] = Example 1 batch
Procedure: In another embodiment, the sodium thiosulfate provided herein has a pH between about 6 to about 8 when measured in a 10% solution at 25° C. In certain embodiments, the pH of the sodium provided herein is measured using a pH meter. In certain embodiments, the pH of the sodium thiosulfate provided herein is determined according to Method 791 in USP XXXII (2009).

calciphylaxis = details: literature report, Archives of Dermatology 2007; cited from earlier work
[2] = system: platinum-induced nephrotoxicity; details: associated with platinum-containing chemotherapeutic agents; Current Opinions in Oncology 1995; cited from earlier work
vascular calcification = details: literature report, Kidney International 2008; cited from earlier work
[3] = system: platinum-induced ototoxicity; details: associated with platinum-containing chemotherapeutic agents; Current Opinions in Oncology 1995; cited from earlier work

For `O.O.O.O.O.O=S([O-])([O-])=S.[Na+].[Na+]` [sodium thiosulfate pentahydrate], the “pH of 10% solution at 25° C.” value [1] is given as 6.6, the treatment for calciphylaxis (calciphylaxis) is given as “effective treatment” and the “treatment to prevent platinum-induced nephrotoxicity” value [2] is given as “effective treatment”. The “treatment for vascular calcification” value (vascular calcification) was “effective treatment” and the “treatment to prevent platinum-induced ototoxicity” value [3] was “effective treatment”.
